{
  "source": "patent US8846914B2",
  "about": "“Compositions to effect neuronal growth” (Neuralstem, Inc., priority 2003, dated 2014)",
  "key": {"[1]": {"system": "human hippocampal stem cells", "experiment": "Cell proliferation, Alamar Blue staining of live cells", "format": "cell-based", "settings": "seven days of compound treatment; relative to vehicle control", "method": "FIG. 1 is a bar graph illustrating an example of a proliferation profile of compounds selected from primary screening. Proliferation is measured after compound treatment for seven days by Alamar Blue staining of live cells per well. Shown are relative values over the vehicle control.\nNeural stem cells and progenitor cells differentiate spontaneously in the absence of a mitogen; therefore, undifferentiated mitotic cells are harvested by enzyme treatment to remove residual mitogen, such as basic fibroblast growth factor (bFGF) used in expansion and proliferation of the cells. In one embodiment of the present invention, undifferentiated human hippocampal stem cells (e.g., HH580)/progenitor cells are harvested by enzyme treatment.\nThe collected cells are seeded for attachment of the cells such as standard 96-well or 384-well plates, pre-coated with extracellular matrix proteins, such as poly-D-lysine and fibronectin (e.g., Biocoat PDL, Fisher). The initial seeding density can be within the range of about 2,000-125,000 cells per well of a 96-well plate. The preferred density, however, is 40,000 cells per well of a 96-well plate which has been optimized for best signal-to-noise ratio as described in pending U.S. patent application Ser. No. 10/728,652. Cell density that is too low retards the initiation of differentiation and results in poor plating efficiency which interferes with the assay. Cell density that is too high leads to inhibition of neurogenesis due to cell-to-cell interaction and paracrine factors which also interfere with the assay. […] For example, for a 384-well plate which has approximately one-fourth of the surface area of a 96-well plate, the initial seeding density should be decreased by one-fourth accordingly.\nThe cells are passaged and grown for seven days in 15 cm plates in full growth medium according to Neuralstem protocol with 50% of the media changed every other day. Following centrifugation, the call pellet is re-suspended in N2b medium and enough N2b medium is added to the cell suspension to achieve a concentration of […]. The N2b seeding media includes a standard serum-free, growth factor-free, basal media without phenol red that supports healthy neuronal/glial survival. Fibronectin and PBS is completely removed by aspiration from wells of fibronectin-coated 96-well plate(s). 100 μl of N2b medium with or without 2× concentration of screening agents or compounds to be tested are added to each well. Subsequently, 100 μl of the cell suspension is added to each well at a density of 40,000 cells per well. The cell suspension is incubated for two days at 37° C. in the presence of 5% CO2.\nOn Days 2, 4, and 6 of post-plating, incremental additions of the compounds are made to each well at appropriate concentrations. Therefore, after two days, 100 μl of N2b medium is removed from the wells, and 100 μl of the N2b medium is added. Likewise, on days four and six, 100 μl of N2b medium is removed from the wells and 100 μl of the N2b medium is added, and the cell suspension is again incubated at 37° C. in the presence of 5% CO2.\nOn day seven, the final day of the culture, a fluorescent dye such as Alamar Blue dye is added to each well. Alamar Blue dye detects metabolic respiration and is a reflection of total cellular activity indicating changes in cell number of neurons. In this regard, 20 μl of Alamar Blue (Biosource International DAL 1025) is added to each well and incubated for two hours at 37° C. in the presence of 5% CO2.\nAs a preliminary detection of positive activities, the overall immunostaining intensity in each well is read by a fluorescence plate reader. For instance, the fluorescence of the oxidized dye in each well is read by a fluorescent plate reader such as the Molecular Devices Fluorometric Plate Reader. The reader is set on the Read Mode End Point setting at an excitation of 530 nm, an emission of 590 nm, and a cutoff 570 nm. […]"}, "[2]": {"system": "human hippocampal stem cells differentiated for 3-4 weeks", "experiment": "Neuroprotection against staurosporine-induced neurodegeneration", "format": "cell-based", "settings": "125 nM staurosporine, twenty-four hour, 10 μM agent; for inhibition at 10 µM: Homo sapiens, 24 h", "method": "FIG. 7A is a bar graph illustrating an example of a neuroprotection profile of the compounds against staurosporine-induced human hippocampal neurodegeneration as indicated by loss of neurons after twenty-four hour treatment with staurosporine by counting the remaining number of neurons, an increase in […], and an increase in intracellular levels of activated caspase-3/-7 detected by immunostaining. Addition of 125 nM staurosporine solution to human hippocampal stem cells differentiated for 3-4 weeks causes neuronal injury and death. Effect of the […] treatment to inhibit the staurosporine-induced neuronal loss and injury are shown. Each bar represents n=6 wells of the mean+/−the SEM from a single experiment.\nEffect of the compound treatment to inhibit the staurosporine-induced neuronal loss and injury are shown. Each bar represents n=6 wells of the mean+/−the SEM from a single experiment.\nAgents that promote proliferation and neurogenesis are further evaluated for their ability to inhibit neurodegeneration and apoptosis of the human hippocampal multipotent stem cell-derived neurons. Neurodegeneration may be induced in culture using any number of inducers as known by those skilled in the art. Examples of neurodegenerative inducers include: staurosporine, hypoxia reperfusion, free radicals, glutamate agonists, activated monocyte supernatant, beta amyloid peptides and corticosteroids to name a few. Some of the neurogenic agents inhibit loss of neurons, inhibit caspase activation, inhibit nuclear fragmentation or condensation, inhibit lactate dehydrogenase activity among other effects on neurodegeneration. Using staurosporine as an example, 125 nM of a staurosporine solution is added along with 10 μM of one of the listed neurogenic agents to human hippocampal stem cells differentiated for 3-4 weeks.\nA number of neurogenic agents inhibit neuronal loss, caspase-3 activity and/or nuclear fragmentation compared to staurosporine vehicle control. These NSI small molecule agents are all effective at in vitro neurogenesis as determined by methods described. More particularly, human hippocampal stem cells differentiated for a period of 3-4 weeks are treated with an agent for 8-24 hrs in a neuronal maintenance media prior to treatment with an apoptotic or neurodegenerative insults such as staurosporin, TNFα and LPS-stimulated monocyte supernatant and the like. Following the treatment period, media is removed from the treated cells and the cells are fixed and stained. Staining may include Hoechst stain, MAP-2ab (AP-20) antibody staining, active caspase-3 antibody or other measures of neurodegeneration and apoptosis. Instrumentation such as a Molecular Devices fluorescent plate reader or a […] Array Scan II instrument and the like may be used to measure the degeneration and apoptosis.\nFIGS. 7A, 7B and 7C illustrate an example of a neuroprotection profile of tested compounds against staurosporine-induced human hippocampal neurodegeneration measured by the remaining number of neurons, an increase in nuclear fragmentation, and an increase in intracellular levels of activated caspase-3/-7 detected by immunostaining, respectively. Human hippocampal stem cells that have been differentiated for 3-4 weeks undergo a twenty-four hour treatment with 125 nM staurosporine solution to cause neuronal injury and death. The effect of the compound treatment to inhibit the staurosporine-induced neuronal loss and injury is shown in each of FIGS. 7A, 7B and 7C. Each bar represents n=6 wells of the mean+/−the SEM from a single experiment."}, "[3]": {"settings": "read-out: Stauro % Inhib Nuclear Frag"}, "[4]": {"settings": "read-out: Stauro % Inhib Caspase-3"}},
  "note": "Read-outs that look alike come from different tables or passages of the source.",
  "data": [
    {"smiles": "CCCCNc1c(C2CCN(C(=O)CN(CC(C)C)S(C)(=O)=O)CC2)nc2cnccn12", "note": "[NSI-106]", "values": [
      {"measurement": "% Prolif (Alamar)", "setting": "[1]", "result": "211 ± 48", "unit": "%"},
      {"measurement": "Stauro % Inhib Neuron Number", "setting": "[2]", "result": "16 ± 19", "unit": "%"}
    ]},
    {"smiles": "CS(=O)(=O)N1CCCCC1C(=O)NCc1ccc(Nc2c(C3CC3)nc3ccccn23)cc1", "note": "(centres unmarked) [NSI-127]", "values": [
      {"measurement": "% Prolif (Alamar)", "setting": "[1]", "result": "181 ± 14", "unit": "%"}
    ]},
    {"smiles": "COc1ccc(CCNc2ncc(C(N)=O)c(NC3CC3)n2)cc1OC", "note": "[NSI-130]", "values": [
      {"measurement": "% Prolif (Alamar)", "setting": "[1]", "result": "92 ± 33", "unit": "%"},
      {"measurement": "inhibition at 10 µM", "setting": "[2]; [3]", "result": "56 ± 17", "unit": "%"}
    ]},
    {"smiles": "CCCNc1ncc(C(N)=O)c(NC2CCCC2)n1", "note": "[NSI-137]", "values": [
      {"measurement": "% Prolif (Alamar)", "setting": "[1]", "result": "108 ± 28", "unit": "%"},
      {"measurement": "inhibition at 10 µM", "setting": "[2]; [3]", "result": "87 ± 41", "unit": "%"}
    ]},
    {"smiles": "O=C(c1cccnc1N1CCNCC1)N1CCN(Cc2ccncc2)CC1", "note": "[NSI-142]", "values": [
      {"measurement": "% Prolif (Alamar)", "setting": "[1]", "result": "115 ± 13", "unit": "%"}
    ]},
    {"smiles": "O=C(NC1CCN(Cc2ccccc2)CC1)c1cccnc1N1CCNCC1", "note": "[NSI-143]", "values": [
      {"measurement": "% Prolif (Alamar)", "setting": "[1]", "result": "97 ± 16", "unit": "%"},
      {"measurement": "inhibition at 10 µM", "setting": "[2]; [3]", "result": "123 ± 77", "unit": "%"}
    ]},
    {"smiles": "NC(=O)c1cnc(NCc2ccc(Cl)cc2)nc1NCC1CCCCC1", "note": "[NSI-144]", "values": [
      {"measurement": "% Prolif (Alamar)", "setting": "[1]", "result": "149 ± 15", "unit": "%"}
    ]},
    {"smiles": "CCCCNc1c(C2CCN(C(=O)c3ccc(C#N)cc3)CC2)nc2ccccn12", "note": "[NSI-149]", "values": [
      {"measurement": "% Prolif (Alamar)", "setting": "[1]", "result": "216 ± 28", "unit": "%"},
      {"measurement": "Stauro % Inhib Neuron Number", "setting": "[2]", "result": "47 ± 15", "unit": "%"}
    ]},
    {"smiles": "C=CCNC(=O)c1cccnc1NCc1ccccc1OC", "note": "[NSI-150]", "values": [
      {"measurement": "% Prolif (Alamar)", "setting": "[1]", "result": "177 ± 44", "unit": "%"}
    ]},
    {"smiles": "CC(C)(C)OC(=O)NCCNC(=O)c1cccnc1NCC1CCCCC1", "note": "[NSI-157]", "values": [
      {"measurement": "% Prolif (Alamar)", "setting": "[1]", "result": "218 ± 140", "unit": "%"}
    ]},
    {"smiles": "NC(=O)C1CCCN1C(=O)c1cccnc1NCC1CCCCC1", "note": "(centres unmarked) [NSI-158]", "values": [
      {"measurement": "% Prolif (Alamar)", "setting": "[1]", "result": "236 ± 79", "unit": "%"},
      {"measurement": "Stauro % Inhib Neuron Number", "setting": "[2]", "result": "22 ± 18", "unit": "%"},
      {"measurement": "inhibition at 10 µM", "setting": "[2]; [4]", "result": "48 ± 14", "unit": "%"}
    ]},
    {"smiles": "O=C(NCc1nc2ccccn2c1NCC1CCCO1)Oc1ccccc1", "note": "(centres unmarked) [NSI-182]", "values": [
      {"measurement": "% Prolif (Alamar)", "setting": "[1]", "result": "74 ± 8", "unit": "%"},
      {"measurement": "inhibition at 10 µM", "setting": "[2]; [4]", "result": "108 ± 21", "unit": "%"},
      {"measurement": "inhibition at 10 µM", "setting": "[2]; [3]", "result": "85 ± 45", "unit": "%"}
    ]},
    {"smiles": "O=C(COc1ccccc1)NCc1nc2ccccn2c1NCC1CCCO1", "note": "(centres unmarked) [NSI-183]", "values": [
      {"measurement": "% Prolif (Alamar)", "setting": "[1]", "result": "69 ± 18", "unit": "%"}
    ]},
    {"smiles": "CS(=O)(=O)N(CC(=O)NCc1nc2ccccn2c1NCc1ccccc1)c1ccccc1", "note": "[NSI-185]", "values": [
      {"measurement": "% Prolif (Alamar)", "setting": "[1]", "result": "73 ± 26", "unit": "%"},
      {"measurement": "Stauro % Inhib Nuclear Frag", "setting": "[2]", "result": "N/N"}
    ]},
    {"smiles": "CC(C)CCNc1ncccc1C(=O)N1CCN(Cc2ccccc2)CC1", "note": "[NSI-189]", "values": [
      {"measurement": "% Prolif (Alamar)", "setting": "[1]", "result": "70 ± 21", "unit": "%"},
      {"measurement": "Stauro % Inhib Neuron Number", "setting": "[2]", "result": "N/N"}
    ]},
    {"smiles": "CCN(CCNC(=O)c1cccnc1NCCC(C)C)Cc1cccnc1", "note": "[NSI-190]", "values": [
      {"measurement": "% Prolif (Alamar)", "setting": "[1]", "result": "76 ± 14", "unit": "%"},
      {"measurement": "Stauro % Inhib Neuron Number", "setting": "[2]", "result": "32 ± 1", "unit": "%"},
      {"measurement": "inhibition at 10 µM", "setting": "[2]; [3]", "result": "42 ± 30", "unit": "%"}
    ]}
  ]
}
